Assay results reported in the NIST ThermoML archive (doi:10.1016/j.tca.2007.04.007).
Numbers after ± are expanded uncertainties.

Test: molar heat capacity at constant pressure
Conditions: 101.33 kPa, Crystal, Large sample (1 g) DSC

C[C@@H]1CC[C@H]2[C@@H](C)C(=O)O[C@@H]3O[C@@]4(C)CC[C@@H]1[C@]32OO4 [artemisinin]
Conditions | molar heat capacity at constant pressure [J/K/mol]
80.88 K | 106.29 ± 1.6
84.39 K | 107.4 ± 1.7
87.31 K | 111.29 ± 1.7
90.28 K | 115.11 ± 1.8
93.15 K | 118.77 ± 1.8
96.08 K | 122.29 ± 1.9
99.06 K | 126.22 ± 2
101.96 K | 129.96 ± 2
104.91 K | 133.57 ± 2.1
107.91 K | 137.36 ± 2.1
110.85 K | 141.04 ± 2.2
113.72 K | 144.58 ± 2.2
116.65 K | 147.72 ± 2.3
119.63 K | 151.4 ± 2.3
122.57 K | 154.67 ± 2.4
125.44 K | 158.04 ± 2.4
128.38 K | 161.18 ± 2.5
131.37 K | 164.32 ± 2.5
134.31 K | 167.29 ± 2.6
137.21 K | 170.2 ± 2.6
140.06 K | 173.58 ± 2.7
142.85 K | 175.98 ± 2.7
145.7 K | 178.74 ± 2.8
148.61 K | 181.39 ± 2.8
151.48 K | 184.15 ± 2.9
154.31 K | 188.26 ± 2.9
157.09 K | 189.51 ± 2.9
159.85 K | 190.78 ± 3
162.66 K | 193.14 ± 3
165.54 K | 194.65 ± 3
168.38 K | 196.91 ± 3
171.2 K | 197.84 ± 3.1
173.98 K | 199.03 ± 3.1
176.74 K | 201.03 ± 3.1
179.47 K | 203.22 ± 3.1
182.17 K | 204.81 ± 3.2
184.93 K | 207.17 ± 3.2
187.75 K | 209.02 ± 3.2
190.54 K | 210.2 ± 3.3
193.3 K | 211.69 ± 3.3
196.04 K | 214.53 ± 3.3
198.78 K | 218.09 ± 3.4
201.49 K | 234.61 ± 3.6
204.35 K | 248.75 ± 3.9
207.26 K | 254.52 ± 3.9
210.15 K | 259.16 ± 4
213.03 K | 263.67 ± 4.1
215.98 K | 268.33 ± 4.2
218.98 K | 272.61 ± 4.2
221.97 K | 277.47 ± 4.3
224.93 K | 283.14 ± 4.4
227.86 K | 300.11 ± 4.7
230.9 K | 305.21 ± 4.7
234.15 K | 304.08 ± 4.7
237.2 K | 300.49 ± 4.7
240.2 K | 312.96 ± 4.8
243.25 K | 303.71 ± 4.7
246.2 K | 290.19 ± 4.5
249.15 K | 291.35 ± 4.5
252.08 K | 292.72 ± 4.5
254.99 K | 294.78 ± 4.6
257.88 K | 295.87 ± 4.6
260.75 K | 297.43 ± 4.6
263.6 K | 299.57 ± 4.6
266.43 K | 301.66 ± 4.7
269.3 K | 304.16 ± 4.7
272.21 K | 307.87 ± 4.8
275.11 K | 309.22 ± 4.8
278.48 K | 312.58 ± 4.8
282.32 K | 315.57 ± 4.9
286.12 K | 318.4 ± 4.9
289.88 K | 323.79 ± 5
293.71 K | 327.62 ± 5.1
297.59 K | 331.62 ± 5.1
301.45 K | 336.33 ± 5.2
305.28 K | 339.95 ± 5.3
309.08 K | 344.57 ± 5.3
312.86 K | 351.73 ± 5.4
316.64 K | 334.75 ± 5.2
320.44 K | 337.71 ± 5.2
324.16 K | 338.79 ± 5.2
327.84 K | 344.42 ± 5.3
331.58 K | 356.39 ± 5.5
335.37 K | 360.69 ± 5.6
339.11 K | 368.06 ± 5.7
342.41 K | 376.18 ± 5.8
345.26 K | 376.26 ± 5.8
348.11 K | 388.36 ± 6
350.96 K | 394.39 ± 6.1
353.85 K | 397.54 ± 6.2
356.81 K | 403.86 ± 6.3
359.88 K | 413.08 ± 6.4
363.03 K | 429.5 ± 6.7
